The values that follow come from patent US8691517B2, “Flexible carbohydrate-bearing polymer” (Medtronic Minimed, Inc., priority 2005, dated 2014).

The target in the assay is MBL (Homo sapiens, UniProt P11226). Description: affinity of monomeric saccharide unit to MBL. The assay is classed as binding.

For orientation: IC50 means the concentration that gives 50% inhibition. A lower IC50 goes with higher potency.

Sequence of MBL (P11226 21-248): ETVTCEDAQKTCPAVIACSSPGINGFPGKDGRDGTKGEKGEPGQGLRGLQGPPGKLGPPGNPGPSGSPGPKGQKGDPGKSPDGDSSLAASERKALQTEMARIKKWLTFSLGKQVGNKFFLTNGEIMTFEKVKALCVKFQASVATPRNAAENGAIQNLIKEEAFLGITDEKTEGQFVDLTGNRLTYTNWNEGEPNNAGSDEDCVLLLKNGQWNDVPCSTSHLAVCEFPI

For the compound `CC(=O)N[C@H]1C(O)O[C@H](CO)[C@@H](O)[C@@H]1O` (some centres unmarked) [N-acetyl-glucosamine], the IC50 is ~6 mM.

Regarding `O=C[C@H](O)[C@@H](O)[C@@H](O)[C@H](O)CO` [galactose], the IC50 was ~36 mM.
